Where a SMILES comes first, the peptide text is derived from it. [ ]: non-standard residue; d: D form.

Data set [1] relates to antibody response to ovalbumin. The experiment in a line: Adjuvant activity: antibody response to ovalbumin in mice, titer by solid-phase ELISA. Format: in vivo, Balb/c mice. The following applies: for Adjuvant index / Anti-ovalbumin antibody titer: i.p. The protocol: To study the adjuvant activity of RN-peptide, Balb/c mice were immunized with ovalbumin in saline in the presence of the RN-peptide, its analogs or GMDP, or without any adjuvant (control). The adjuvant was introduced on first immunization, whereas second immunization was carried out with half dose of OVA without adjuvant.
Adjuvant activity. Groups of 5 Balb/c mice were administered i.p. with 2.5-10 μg ovalbumin (Sigma, USA) per mouse in 200 μl PBS. RN-peptide (0.1-100 μg) or GMDP (1-100 μg) was introduced simultaneously with ovalbumin on first immunization. The second immunization was carried out 28 days later with half dose of ovalbumin (1.25-5.0 μg/200 μl) without adjuvant. Control mice received ovalbumin twice without adjuvant. Three days after the second immunization mice were bled from the tail vein. […] Control mice received polysaccharide without any adjuvant. Five and ten days after immunization mice were bled.
The antibody titer was evaluated by solid-phase ELISA as described by Douillard and Hoffman (1983) Enzyme-linked immunosorbent assay for screening monoclonal antibody production using enzyme-labeled second antibody. The antigen (ovalbumin or polysaccharide), 5 μg/ml in bicarbonate buffer, pH 8.6 (100 μl), was introduced into wells of 96-well microtiter plate. Incubation was carried out overnight at 4° C. The plate was washed 5 times with PBS and 5 times with PBS/0.1% Tween-20 (PBS-T). Remaining binding sites were blocked with 1% gelatin in PBS (2 h, room temperature). After washing 100 μl of mouse serum (1:100 dilution) was added, and serial three-fold dilutions were made. Bound antibodies were visualized by incubation with Horse-Radish-Peroxidase (HRP)-conjugated rabbit anti-mouse antibodies and OPD as the chromogenic substrate.
A general note: In an ELISA, binding on a coated surface is turned into a signal by an enzyme label.

The subject of the next data set is mAb E6/1.2. The following applies: cited from earlier work.
Data set [2] relates to Balb/c mice peritoneal mononuclear cells (PMC). The experiment in a line: Ia-antigen-inducing effect, flow cytometry, peritoneal mononuclear cells. Format: cell-based, mouse. On the procedure: (§1) We studied the Ia-antigen-inducing activity of RN-peptide by stimulation in vitro of murine peritoneal macrophages. Flow cytometry was used to assess Ia-antigen expression. […] The pyrogenicity of the peptide was studied in Wistar rats. […] The dynamics of alteration of rectal temperature were monitored during 2.5 h.
Balb/c mice peritoneal mononuclear cells (PMC) were isolated by Histopaque density gradient centrifugation. PMC or WEHI-3 cells were incubated with RN-peptide (0.1-10 μg/ml) or GMDP (positive control) or saline (negative control) in RPMI 1640 medium, supplemented with 5% fetal calf serum upon rotary mixing for 18 h at 37° C. Cells were stained on ice bath with MKD6 anti-Ia^d mAb (supernatant from the in vitro culture, 1:10 dilution) and FITC-labeled anti-mouse immunoglobulin (Sigma, USA, 1:300 dilution), and then with phycoerythrin-labeled F4/80 mAb (Caltag, USA, 0.2 μg/100 μl). Ia antigen expression was assessed by flow cytometry using EPICS “Elite” (Coulter, USA).

For data set [3] the following is noted: rat, in vivo, ip. On the procedure:
as §1
The pyrogenic effect SPF female Wistar rats were injected i.p. with a peptide (1.01 mg/kg; 5.74×10^−7 mole/kg) in PBS or with equal dose of GMDP (0.4 mg/kg; 5.74×10^−7 mole/kg). Rectal temperature was recorded every 5 minutes for 160 minutes using PowerLabe/4sp system with an electronic thermometer (MLT1403 Rectal Probe for Rats, AD Instruments USA). All data were quantified (mean±SEM) and compared by the variance analysis.

Another data set deals with E. coli strain TG-1. The experiment in a line: Survival of Balb/c mice infected with E. coli strain TG-1. The following applies: 2 ng i.p., 6 mice at 0 h. Format: in vivo, mouse. On the procedure:
Groups of Balb/c mice (20-22 g) were administered i.p. with RN-peptide, or GMDP, or saline (control), and then infected i.p. with E. coli strain TG-1 cells. Two doses of E. coli cells were used—1×10^8 (LD50) and 2×10^8 (LD100). Mice were infected one day (experiment A) or seven days (experiment B) after injection of the immunomodulator. Survival of mice was assessed during three days. Results showing that RN-peptide protects mice from lethal doses of E. coli infections (Table 4).

The mark [4] stands for this setting: adjuvant 1 μg, ovalbumin 10 μg then 5 μg.
Setting [5] is: adjuvant 10 μg, ovalbumin 10 μg then 5 μg.
The mark [6] stands for this setting: adjuvant 100 μg, ovalbumin 10 μg then 5 μg.
The mark [7] stands for this setting: adjuvant 10 μg, ovalbumin 2.5 μg then 1.25 μg.
The mark [8] stands for this setting: Experiment A (infected one day after injection), 1 × 10^8 E. coli cells (LD50).
The mark [9] stands for this setting: Experiment A (infected one day after injection), 2 × 10^8 E. coli cells (LD100).
Where [10] appears, read: Experiment B (infected seven days after injection), 1 × 10^8 E. coli cells (LD50).
The mark [11] stands for this setting: Experiment B (infected seven days after injection), 2 × 10^8 E. coli cells (LD100).

Consider “R-I-peptide: 10-mer, RN-peptide truncated from C-terminus (SEQ ID NO: 9) (RVPPRYHAKI)”, for which the Adjuvant index in data set [1] (setting [4]) came out at 6.3 ± 0.06; in data set [1] (setting [5]) it was 3.2 ± 0.09; in data set [1] (setting [6]) it was 4.2 ± 0.05. Also, the Anti-ovalbumin antibody titer is recorded as 24000 in data set [1] (setting [4]), 19200 in data set [1] (setting [5]) and 25200 in data set [1] (setting [6]). In addition, the “adjuvant activity (in words)” value in data set [1] (ovalbumin in mice) was “adjuvant active”.

Consider “R-H-peptide: 7-mer, RN-peptide truncated from C-terminus (SEQ ID NO: 10); truncated heptapeptide (RVPPRYH)”, for which the Adjuvant index in data set [1] (setting [4]) stood at 0.7 ± 0.03; in data set [1] (setting [5]) it was 2.3 ± 0.05; in data set [1] (setting [6]), 8.6 ± 0.09. The Anti-ovalbumin antibody titer in data set [1] (setting [4]) came out at 4000; in data set [1] (setting [5]), 13900; in data set [1] (setting [6]), 51900. For the same compound, the “dose required for maximal effect relative to RN-peptide” value in data set [1] (mouse, in vivo) was 100 times.

Turning to `CC(=O)NC1C(OC2C(CO)OC(O)C(NC(C)=O)C2OC(C)C(=O)NC(C)C(=O)NC(CCC(=O)O)C(N)=O)OC(CO)C(O)C1O` (stereo not drawn) [LL-GMDP], the “binding of mAb E6/1.2” value in the data set with mAb E6/1.2 (compared with GMDP) is “bind equally well”.

With `CC(=O)N[C@H]1[C@H](O[C@H]2[C@H](O[C@H](C)C(=O)N[C@@H](C)C(=O)N[C@H](CCC(=O)O)C(N)=O)[C@@H](NC(C)=O)C(O)O[C@@H]2CO)O[C@H](CO)[C@@H](O)[C@@H]1O` (stereo partly drawn) [GMDP, N-acetylglucosaminyl-β1-4-N-acetylmuramyl-alanyl-D-isoglutamine, reference compound], the Adjuvant index in data set [1] (setting [4]) is on record as 0.7 ± 0.03; in data set [1] (setting [7]) it was 2.37 ± 0.06; in data set [1] (setting [5]), 1.3 ± 0.03; in data set [1] (setting [6]), 10.8 ± 0.08. The Anti-ovalbumin antibody titer in data set [1] (setting [4]) is listed as 4000 ± 150; in data set [1] (setting [7]), 5800 ± 150; in data set [1] (setting [5]) it was 7900 ± 200; in data set [1] (setting [6]), 64800 ± 500. Besides, the “concentration of peak (optimal) Ia-antigen response” value in data set [2] (18 h incubation) was 10 µg/mL. Further, the “increase in Ia-positive cell number” value in data set [2] (at optimal dose, overnight treatment) is given as 10%. Further, the “optimal dose for Ia-positive cell increase” value in data set [2] (overnight treatment) was determined as 10 µg. Further, the “increase in body temperature” value in data set [3] is 2.0-4.0%. In addition, the Number of survivors in the data set with E. coli strain TG-1 (setting [8]) is 2; in the data set with E. coli strain TG-1 (setting [9]), 1; in the data set on E. coli strain TG-1 (setting [10]), 2; with E. coli strain TG-1 (setting [11]) it was 0. In addition, the “surviving mice, 24 hours after infection” value was found to be 2 with E. coli strain TG-1 (setting [8]), 2 in the data set on E. coli strain TG-1 (setting [9]), 5 with E. coli strain TG-1 (setting [10]) and 3 in the data set on E. coli strain TG-1 (setting [11]). Moreover, the “surviving mice, 28 hours after infection” value with E. coli strain TG-1 (setting [8]), in the data set with E. coli strain TG-1 (setting [9]), in the data set with E. coli strain TG-1 (setting [10]) and with E. coli strain TG-1 (setting [11]) was 2 each time. The “surviving mice, 72 hours after infection” value came out at 2 in the data set on E. coli strain TG-1 (setting [8]), 1 with E. coli strain TG-1 (setting [9]), 2 in the data set with E. coli strain TG-1 (setting [10]) and 0 in the data set on E. coli strain TG-1 (setting [11]).

Turning to “RV-peptide: 14-mer, RN-peptide truncated from C-terminus (SEQ ID NO: 8) (RVPPRYHAKISPMV)”, the Adjuvant index in data set [1] (setting [4]) came out at 6.3 ± 0.06; in data set [1] (setting [5]) it was 1.4 ± 0.04; in data set [1] (setting [6]), 0.8 ± 0.03. Further, the Anti-ovalbumin antibody titer came out at 37800 ± 350 in data set [1] (setting [4]), 8400 ± 240 in data set [1] (setting [5]) and 4800 ± 180 in data set [1] (setting [6]).

As for “VN-peptide: 14-mer, RN-peptide truncated from N-terminus (SEQ ID NO: 11) (VPPRYHAKISPMVN)”, the Adjuvant index in data set [1] (setting [4]) amounted to 0.9 ± 0.03; in data set [1] (setting [5]) it was 1.4 ± 0.04; in data set [1] (setting [6]), 0.7 ± 0.03. Moreover, the Anti-ovalbumin antibody titer in data set [1] (setting [4]) is 5400 ± 200; in data set [1] (setting [5]) it was 8400 ± 230; in data set [1] (setting [6]), 4200 ± 150.

For the compound `CC(=O)N[C@H]1[C@H](O[C@H]2[C@H](O[C@H](C)C(=O)O)[C@@H](NC(C)=O)C(O)O[C@@H]2CO)O[C@H](CO)[C@@H](O)[C@@H]1O` (stereo partly drawn) [GlcNAc-β(1-4)-MurNAc], the “inhibition of binding of GMDP to E6/1.2 mAb” value in the data set with mAb E6/1.2 is reported as “could be inhibited by high concentration”.

Turning to `C[C@H](N)C(=O)N[C@H](CCC(=O)O)C(N)=O` [Ala-D-iGln] (H-Ala-[dE]-NH2), in the data set with mAb E6/1.2, the “inhibition of binding of GMDP to E6/1.2 mAb” value is “not”.

The values are drawn from patent publication US20090142364A1, “Method for finding novel peptide immunostimulatory adjuvants, compositions and methods of use” (priority 2007, published 2009).
